The values that follow come from patent publication US7291641B2, “Derivatives of heterocycles with 5 members, their preparation and their use as medicaments” (Societe de Conseils de Recherches et d'Applications …, priority 1999, dated 2007).

Where a name gives a salt, the structure may show the parent alone.

One may read the melting point as the temperature, or range, at which the solid turns liquid. `CCCCOC(=O)NCCc1nc(-c2ccc(-c3ccc(C)cc3)cc2)c[nH]1` [Example 394, butyl 2-[4-(4′-methyl-1,1′-biphenyl-4-yl)-1H-imidazol-2-yl]ethylcarbamate] showed a melting point of 168.4 °C. To `CN(C)Cc1nc(-c2ccccc2)cn1Cc1ccccc1` [Example 45, (1-benzyl-4-phenyl-1H-imidazol-2-yl)-N,N-dimethylmethanamine] belongs 78 to 80 °C; to `C#CCN(C)Cc1nc(-c2cc(C(C)(C)C)c(O)c(C(C)(C)C)c2)cs1` [Example 2, 2,6-di(tert-butyl)-4-(2-{[methyl(2-propynyl)amino]methyl}-1,3-thiazol-4-yl)phenol], 210 to 215 °C. The value for `CS(=O)(=O)c1ccc(-c2c[nH]c([C@@H](NC3CCCCC3)C3CCCCC3)n2)cc1` [Example 138, N-{(S)-cyclohexyl[4-(4-methylsulphonylphenyl)-1H-imidazol-2-yl]methyl}cyclohexanamine] was 152 to 154 °C; that for `CCCCCCC(NC1CCCCC1)c1nc(-c2ccccc2)c[nH]1` (racemic) [Example 76, (R,S)-N-[1-(4-phenyl-1H-imidazol-2-yl)heptyl]cyclohexanamine] was 68 to 70 °C; that for `c1ccc(CN[C@H](Cc2c[nH]c3ccccc23)c2nc(-c3ccccc3)c(-c3ccccc3)[nH]2)cc1` [Example 94, (1R)-N-benzyl-1-(4,5-diphenyl-1H-imidazol-2-yl)-2-(1H-indol-3-yl)ethanamine] was 146 to 148 °C.

Turning to `CCCCOC(=O)NCCc1nc(-c2ccc(-c3cc(F)cc(F)c3)cc2)c[nH]1` [Example 457, butyl 2-[4-(3′,5′-difluoro-1,1′-biphenyl-4-yl)-1H-imidazol-2-yl]ethylcarbamate], the melting point was found to be 111.1 °C. To `O=C(NCCc1nc(-c2ccc(-c3ccccc3)cc2)c[nH]1)OCC1CCCCC1` [Example 280, cyclohexylmethyl 2-(4-[1,1′-biphenyl]-4-yl-1H-imidazol-2-yl)ethylcarbamate] belongs 132 to 134 °C; to `CCCCC(=O)NCCc1nc(-c2ccc(-c3ccccc3)cc2)c[nH]1` [Example 32, N-[2-(4-[1,1′-biphenyl]-4-yl-1H-imidazol-2-yl)ethyl]pentanamide], 166 to 167 °C; to `CCCCOC(=O)NCCc1nc(-c2ccc(F)cc2)c[nH]1` [Example 251, butyl 2-[4-(4-fluorophenyl)-1H-imidazol-2-yl]ethylcarbamate], 87 °C.

The compound `CC(C)(C)NC(=S)NCCc1nc(-c2ccc(-c3ccccc3)cc2)c[nH]1` [Example 172, 4-[2-(2-{[(tert-butylamino)carbothioyl]amino}ethyl)-1H-imidazol-4-yl]-1,1′-biphenyl] returned a melting point of 98 to 99 °C. To `Fc1cccc(-c2c[nH]c([C@@H](NC3CCCCC3)C3CCCCC3)n2)c1` (as salt: hydrochloride) [Example 314, N-{(S)-cyclohexyl[4-(3-fluorophenyl)-1H-imidazol-2-yl]methyl}cyclohexanamine] belongs 213.9 °C; to `Cn1cc(-c2ccc(-c3ccccc3)cc2)nc1CNC(=O)OC(C)(C)C` [Example 146, 4-(2-{[(tert-butoxycarbonyl)amino]methyl}-1-methyl-1H-imidazol-4-yl)-1,1′-biphenyl], 208 to 210 °C; to `CCCCC(NC(=O)OC(C)(C)C)c1nc(-c2ccccc2)c[nH]1` (racemic) [Example 174, tert-butyl (R,S)-1-(4-phenyl-1H-imidazol-2-yl)pentylcarbamate], 126 °C.

`CCCCCCC(N)c1nc(-c2ccc(N(CC)CC)cc2)c[nH]1` (racemic) (as salt: hydrochloride) [Example 218, (R,S)-4-[2-(1-aminoheptyl)-1H-imidazol-4-yl]-N,N-diethylaniline] had a melting point of 192 °C. To `O=C(NCCc1nc(-c2ccc(-c3ccccc3)cc2)c[nH]1)OCc1ccccc1` [Example 237, 4-[2-(2-{[(benzyloxy)carbonyl]amino}ethyl)-1H-imidazol-4-yl]-1,1′-biphenyl] belongs 134 to 136 °C; to `CC(C)COC(=O)NCCc1nc(-c2ccc(C(C)(C)C)cc2)c[nH]1` [Example 339, isobutyl 2-[4-(4-tert-butylphenyl)-1H-imidazol-2-yl]ethylcarbamate], 110.6 °C. On to `CC(C)CCCC(NC1CCCCC1)c1nc(-c2cccc(Br)c2)c[nH]1` (centres unmarked) [Example 37, N-{1-[4-(3-bromophenyl)-1H-imidazol-2-yl]-5-methylhexyl}-N-cyclohexylamine], for which the melting point was 236 to 238 °C. As for `CCCCCCN[C@@H](Cc1c[nH]c2ccccc12)c1nc(-c2ccccc2)c[nH]1` (as salt: hydrochloride) [Example 53, N-[(1S)-2-(1H-indol-3-yl)-1-(4-phenyl-1H-imidazol-2-yl)ethyl]-1-hexanamine], the melting point lay within 132 to 134 °C. To `CCCCOC(=O)NCCc1nc(-c2ccc(-c3ccc(F)cc3)cc2)c[nH]1` [Example 392, butyl 2-[4-(4′-fluoro-1,1′-biphenyl-4-yl)-1H-imidazol-2-yl]ethylcarbamate] belongs 149.3 °C; to `N[C@H](CC1CCCCC1)c1nc(-c2ccc(F)cc2)c[nH]1` (as salt: hydrochloride) [Example 308, (1R)-2-cyclohexyl-1-[4-(4-fluorophenyl)-1H-imidazol-2-yl]ethanamine], 148 to 149 °C; to `FC(F)(F)c1cccc(-c2c[nH]c([C@@H](NCC3CCCCC3)C3CCCCC3)n2)c1` [Example 305, (S)-1-cyclohexyl-N-(cyclohexylmethyl)-1-{4-[3-(trifluoromethyl)-phenyl]-1H-imidazol-2-yl}methanamine], 143.9 °C. In the case of `N[C@H](c1nc(-c2ccc(F)c(F)c2)c[nH]1)C1CCCCC1` (as salt: hydrochloride) [Example 258, (S)-cyclohexyl[4-(3,4-difluorophenyl)-1H-imidazol-2-yl]-methanamine], the melting point was 222 to 223 °C. The value for `CCCCCCC(N)c1nc(-c2cc(C(C)(C)C)c(O)c(C(C)(C)C)c2)c[nH]1` (racemic) (as salt: hydrochloride) [Example 210, (R,S)-4-[2-(1-aminoheptyl)-1H-imidazol-4-yl]-2,6-di(tert-butyl)-phenol] was 204 to 206 °C. To `c1ccc(-c2ccc(-c3c[nH]c(CCNC4CCCCC4)n3)cc2)cc1` [Example 249, N-[2-(4-[1,1′-biphenyl]4-yl-1H-imidazol-2-yl)ethyl]-cyclohexanamine] belongs 207 to 210 °C; to `CCN(CC)c1ccc(-c2c[nH]c([C@@H](NCC3CCCCC3)C3CCCCC3)n2)cc1` (as salt: hydrochloride) [Example 290, 4-(2-{(S)-cyclohexyl[(cyclohexylmethyl)amino]methyl}-1H-imidazol-4-yl)-N,N-diethylaniline], 204 to 206 °C; to `N[C@H](CC1CCCCC1)c1nc(-c2ccccc2)c[nH]1` (as salt: hydrochloride) [Example 132, (1R)-2-cyclohexyl-1-(4-phenyl-1H-imidazol-2-yl)ethanamine], 196 to 198 °C. To `CCCCCCOC(=O)NCCc1nc(-c2ccc(N3CCCC3)cc2)c[nH]1` [Example 384, hexyl 2-[4-(4-pyrrolidin-1-ylphenyl)-1H-imidazol-2-yl]ethylcarbamate] belongs 110 to 114 °C. Take `CCCCCCC(N)c1nc(-c2ccccc2Cl)c[nH]1` (racemic) (as salt: hydrochloride) [Example 221, (R,S)-1-[4-(2-chlorophenyl)-1H-imidazol-2-yl]-1-heptanamine]: the melting point lay within 138 to 140 °C. `CCCCCCC(NCc1ccccc1)c1nc(-c2ccc(-c3ccccc3)cc2)c[nH]1` (racemic) [Example 195, (R,S)-N-benzyl-1-(4-[1,1′-biphenyl]-4-yl-1H-imidazol-2-yl)-1-heptanamine]: the melting point fell in the range of 100 to 102 °C. The value for `CC(C)(C)c1ccc(-c2c[nH]c(CCNC(=O)OCC3CCC3)n2)cc1` [Example 340, cyclobutylmethyl 2-[4-(4-tert-butylphenyl)-1H-imidazol-2-yl]ethylcarbamate] was 103 °C; that for `CCCCCCC(NC1CCCCC1)c1nc(-c2ccc(Cl)c(Cl)c2)c[nH]1` (racemic) (as salt: hydrochloride) [Example 250, (R,S)-N-{1-[4-(3,4-dichlorophenyl)-1H-imidazol-2-yl]heptyl}-cyclohexanamine] was 194 °C; that for `O=C(N[C@H](Cc1c[nH]c2ccccc12)c1nc(-c2ccccc2)c[nH]1)c1ccccc1` [Example 98, N-[(1R)-2-(1H-indol-3-yl)-1-(4-phenyl-1H-imidazol-2-yl)ethyl]benzamide] was 218 to 220 °C. The value for `O=C(NCCc1nc(-c2ccc(-c3ccc(Br)cc3)cc2)c[nH]1)OCCCC(F)(F)F` [Example 344, 4,4,4-trifluorobutyl 2-[4-(4′-bromo-1,1′-biphenyl-4-yl)-1H-imidazol-2-yl]ethylcarbamate] was 176.5 °C; that for `Fc1ccc(-c2c[nH]c([C@@H](NC3CCCCCC3)C3CCCCC3)n2)cc1` [Example 301, N-{(S)-cyclohexyl[4-(4-fluorophenyl)-1H-imidazol-2-yl]methyl}cycloheptanamine] was 140 to 142 °C; that for `O=C(N[C@H](Cc1c[nH]c2ccccc12)c1nc(-c2ccccc2)c[nH]1)OCc1ccccc1` [Example 99, benzyl (1R)-2-(1H-indol-3-yl)-1-(4-phenyl-1H-imidazol-2-yl)ethylcarbamate] was 105 to 108 °C.

With `CCCCOC(=O)NCCc1nc(-c2ccc(-c3ccc(F)c(Cl)c3)cc2)c[nH]1` [Example 447, butyl 2-[4-(3′-chloro-4′-fluoro-1,1′-biphenyl-4-yl)-1H-imidazol-2-yl]ethylcarbamate], the melting point stood at 132.4 °C. In turn, `NCc1nc(-c2ccc(-c3ccccc3)cc2)cn1Cc1ccccc1` (as salt: hydrochloride) [Example 143, (1-benzyl-4-[1,1′-biphenyl]-4-yl-1H-imidazol-2-yl)methanamine] returned a melting point of 170 to 174 °C.
